Test results from patent US20210230203A1, “Amphiphilic Kanamycin Compositions and Methods” (priority 2020, published 2021).
Converted amounts (≈) assume the structure as drawn. Like-named read-outs stand apart in the source and are kept apart here.

What was measured:
Candida guillermondii = assay: MIC against yeast, CLSI M27 & M38 (Table 2); conditions: Candida
C. auris = assay: MIC against various species, CLSI M27 & M38 (Table 4); conditions: Candidozyma auris
Cryptococcus neoformans = assay: MIC against yeast, CLSI M27 & M38 (Table 2); conditions: Cryptococcus neoformans
C. krusei [1] = assay: MIC against various species, CLSI M27 & M38 (Table 4); conditions: Pichia kudriavzevii, ATCC6258, read-out: Minimum inhibitory concentration 50%
Candida glabrata = assay: MIC against yeast, CLSI M27 & M38 (Table 2); conditions: Nakaseomyces glabratus
C. parapsilosis = assay: MIC against various species, CLSI M27 & M38 (Table 4); conditions: Lodderomyces parapsilosis, ATCC22019, read-out: Minimum inhibitory concentration 50%
Candida parapsilosis = assay: MIC against yeast, CLSI M27 & M38 (Table 2); conditions: for Minimum inhibitory concentration 50%: Table 2, RPMI 0.165M MOPS, 24-72 hours; for MIC: Lodderomyces parapsilosis
C. krusei [2] = assay: MIC against yeast, CLSI M27 & M38 (Table 2); conditions: Pichia kudriavzevii, ATCC6258, read-out: Minimum inhibitory concentration 50%
Candida auris = assay: MIC against yeast, CLSI M27 & M38 (Table 2); conditions: Candidozyma auris
C. albicans = assay: MIC against various species, CLSI M27 & M38 (Table 4); conditions: Candida albicans
S. aureus (ATCC 25923) = assay: MIC against bacterial strains; type: cell-based
E. coli (25922) = assay: MIC against bacterial strains; type: cell-based
Candida albicans MYA2876 = assay: MIC against fungal strains (Table 1); type: cell-based; conditions: Candida albicans MYA2876
[3] = system: S. aureus (ATCC 43300) MRSA; type: cell-based
[4] = system: S. aureus (ATCC 33591) MRSA; type: cell-based
Candida albicans 64124 = assay: MIC against fungal strains (Table 1); type: cell-based
Rhodotorula pilimanae = assay: MIC against fungal strains (Table 1); type: cell-based
[5] = system: Cryptococcus neoformans H99; assay: MIC against fungal strains (Table 1); type: cell-based; conditions: Cryptococcus neoformans H99
[6] = system: Fusarium graminearum B4-5A; assay: microbe, parasite or virus in culture; type: cell-based; conditions: Fusarium graminearum B4-5A
Saksenaea sp. = assay: MIC against filamentous and dimorphic fungi, CLSI M27 & M38 (Table 3); type: cell-based, Saksenaea species; conditions: 24-72 hours, read-out: Minimum inhibitory concentration 100%
Rhizopus arrhizus = assay: as above; type: cell-based; conditions: Rhizopus arrhizus, 24-72 hours, read-out: Minimum inhibitory concentration 100%
P. variatii = assay: as above; type: cell-based, Paecilomyces variotii; conditions: Paecilomyces variotii, P. variatii MYA-3630, RPMI 0.165M MOPS, 24-72 hours, read-out: Minimum inhibitory concentration 100%
P. variotil = assay: MIC against various species, CLSI M27 & M38 (Table 4); type: cell-based, Paecilomyces variotii; conditions: Paecilomyces variotii, P. variotil QC, RPMI 0.165M MOPS, 24-72 hours, read-out: Minimum inhibitory concentration 100%
Apaphysomyces = assay: as above; type: cell-based, Apophysomyces; conditions: 24-72 hours, read-out: Minimum inhibitory concentration 100%

Compound: OC(Cn1cncn1)(Cn1cncn1)c1ccc(F)cc1F [Fluconazole, reference compound]
- MIC (Candida guillermondii; read-out: Minimum inhibitory concentration 50%, Candida guillermondii CGUI1, RPMI 0.165M MOPS, 24-72 hours): 1 µg/mL (≈ 3.27 µM)
- MIC (Candida guillermondii; read-out: Minimum inhibitory concentration 50%, Candida guillermondii CGUI2, RPMI 0.165M MOPS, 24-72 hours): 2 µg/mL (≈ 6.53 µM)
- MIC (Candida guillermondii; read-out: Minimum inhibitory concentration 50%, Candida guillermondii CGUI3, RPMI 0.165M MOPS, 24-72 hours): 2 µg/mL (≈ 6.53 µM)
- MIC (C. auris; read-out: Minimum inhibitory concentration 50%, C. auris DI17-46, RPMI 0.165M MOPS, 24-72 hours): > 64 µg/mL
- MIC (C. auris; read-out: Minimum inhibitory concentration 50%, C. auris DI17-47, RPMI 0.165M MOPS, 24-72 hours): > 64 µg/mL
- MIC (C. auris; read-out: Minimum inhibitory concentration 50%, C. auris DI17-48, RPMI 0.165M MOPS, 24-72 hours): 2 µg/mL (≈ 6.53 µM)
- MIC (Cryptococcus neoformans; read-out: Minimum inhibitory concentration 50%, Cryptococcus neoformans CN1, RPMI 0.165M MOPS, 24-72 hours): 8 µg/mL (≈ 26.1 µM)
- MIC (Cryptococcus neoformans; read-out: Minimum inhibitory concentration 50%, Cryptococcus neoformans H99, RPMI 0.165M MOPS, 24-72 hours): 16 µg/mL (≈ 52.2 µM)
- MIC (Cryptococcus neoformans; read-out: Minimum inhibitory concentration 50%, Cryptococcus neoformans USC1597, RPMI 0.165M MOPS, 24-72 hours): 2 µg/mL (≈ 6.53 µM)
- MIC (C. krusei [1]): > 16 µg/mL
- MIC (Candida glabrata; read-out: Minimum inhibitory concentration 50%, Candida glabrata CG1, RPMI 0.165M MOPS, 24-72 hours): > 64 µg/mL
- MIC (Candida glabrata; read-out: Minimum inhibitory concentration 50%, Candida glabrata CG2, RPMI 0.165M MOPS, 24-72 hours): 8 µg/mL (≈ 26.1 µM)
- MIC (Candida glabrata; read-out: Minimum inhibitory concentration 50%, Candida glabrata CG3, RPMI 0.165M MOPS, 24-72 hours): 64 µg/mL (≈ 209 µM)
- MIC (C. parapsilosis): 1 µg/mL (≈ 3.27 µM)
- Minimum inhibitory concentration 50% (Candida parapsilosis; Candida parapsilosis CP2): 0.5 µg/mL (≈ 1.63 µM)
- Minimum inhibitory concentration 50% (Candida parapsilosis; Candida parapsilosis CP3): 0.5 µg/mL (≈ 1.63 µM)
- MIC (Candida parapsilosis; ATCC22019, read-out: Minimum inhibitory concentration 50%): 1 µg/mL (≈ 3.27 µM)
- MIC (Candida parapsilosis; read-out: Minimum inhibitory concentration 50%): 0.5 µg/mL (≈ 1.63 µM)
- MIC (C. krusei [2]): 16 µg/mL (≈ 52.2 µM)
- MIC (Candida auris; read-out: Minimum inhibitory concentration 50%, Candida auris CAU1, RPMI 0.165M MOPS, 24-72 hours): 2 µg/mL (≈ 6.53 µM)
- MIC (Candida auris; read-out: Minimum inhibitory concentration 50%, Candida auris CAU2, RPMI 0.165M MOPS, 24-72 hours): 1 µg/mL (≈ 3.27 µM)
- MIC (Candida auris; read-out: Minimum inhibitory concentration 50%, Candida auris CAU3, RPMI 0.165M MOPS, 24-72 hours): 0.5 µg/mL (≈ 1.63 µM)
- MIC (Candida auris; read-out: Minimum inhibitory concentration 50%, Candida auris CAU4, RPMI 0.165M MOPS, 24-72 hours): > 64 µg/mL
- MIC (Candida auris; read-out: Minimum inhibitory concentration 50%, Candida auris CAU5, RPMI 0.165M MOPS, 24-72 hours): 16 µg/mL (≈ 52.2 µM)
- MIC (Candida auris; read-out: Minimum inhibitory concentration 50%, Candida auris CAU6, RPMI 0.165M MOPS, 24-72 hours): 2 µg/mL (≈ 6.53 µM)
- MIC (Candida auris; read-out: Minimum inhibitory concentration 50%, Candida auris CAU7, RPMI 0.165M MOPS, 24-72 hours): 2 µg/mL (≈ 6.53 µM)
- MIC (Candida auris; read-out: Minimum inhibitory concentration 50%, Candida auris DI17-46, RPMI 0.165M MOPS, 24-72 hours): > 64 µg/mL
- MIC (Candida auris; read-out: Minimum inhibitory concentration 50%, Candida auris DI17-47, RPMI 0.165M MOPS, 24-72 hours): > 64 µg/mL
- MIC (Candida auris; read-out: Minimum inhibitory concentration 50%, Candida auris DI17-48, RPMI 0.165M MOPS, 24-72 hours): 2 µg/mL (≈ 6.53 µM)
- MIC (C. albicans; read-out: Minimum inhibitory concentration 50%, C. albicans CA1, RPMI 0.165M MOPS, 24-72 hours): ≤ 0.125 µg/mL
- MIC (C. albicans; read-out: Minimum inhibitory concentration 50%, C. albicans CA2, RPMI 0.165M MOPS, 24-72 hours): ≤ 0.125 µg/mL
- MIC (C. albicans; read-out: Minimum inhibitory concentration 50%, C. albicans CA3, RPMI 0.165M MOPS, 24-72 hours): > 64 µg/mL

Compound: Neomycin [reference compound]
- Minimum inhibitory concentration (S. aureus (ATCC 25923)): 2 µg/mL
- Minimum inhibitory concentration (E. coli (25922)): 2 µg/mL

Compound: NC1CC(N)C(O[C@H]2OC(CNC(=O)CCCc3ccc4ccc5cccc6ccc3c4c56)[C@@H](O)C(O)C2O)[C@H](O)C1OC1O[C@H](CO)C(O)C(N)[C@H]1O (stereo partly drawn) [KI09]
- Minimum inhibitory concentration (S. aureus (ATCC 25923)): 32 µg/mL (≈ 42.4 µM)
- Minimum inhibitory concentration (Candida albicans MYA2876): 16 µg/mL (≈ 21.2 µM)
- Minimum inhibitory concentration [3]: 32 µg/mL (≈ 42.4 µM)
- Minimum inhibitory concentration [4]: 128 µg/mL (≈ 170 µM)
- Minimum inhibitory concentration (Candida albicans 64124): 16 µg/mL (≈ 21.2 µM)
- Minimum inhibitory concentration (E. coli (25922)): 128 µg/mL (≈ 170 µM)
- Minimum inhibitory concentration (Rhodotorula pilimanae): 16 µg/mL (≈ 21.2 µM)
- Minimum inhibitory concentration [5]: 16 µg/mL (≈ 21.2 µM)
- Minimum inhibitory concentration [6]: 16 µg/mL (≈ 21.2 µM)

Compound: CC[C@@H]([C@H](C)O)n1ncn(-c2ccc(N3CCN(c4ccc(OC[C@@H]5CO[C@@](Cn6cncn6)(c6ccc(F)cc6F)C5)cc4)CC3)cc2)c1=O [Posaconazole, reference compound]
- MIC (Saksenaea sp.; Saksenaea sp. SK1, RPMI 0.165M MOPS): ≤ 0.03 µg/mL
- MIC (Saksenaea sp.; Saksenaea sp. SK2, RPMI 0.165M MOPS): ≤ 0.03 µg/mL
- MIC (Saksenaea sp.; Saksenaea sp. SK3, RPMI 0.165M MOPS): 0.125 µg/mL (≈ 0.178 µM)
- MIC (Rhizopus arrhizus; Rhizopus arrhizus 99-880, RPMI 0.165M MOPS): 1 µg/mL (≈ 1.43 µM)
- MIC (Rhizopus arrhizus; Rhizopus arrhizus 99-892, RPMI 0.165M MOPS): 0.25 µg/mL (≈ 0.357 µM)
- MIC (Rhizopus arrhizus; Rhizopus arrhizus RA1, RPMI 0.165M MOPS): 0.25 µg/mL (≈ 0.357 µM)
- MIC (P. variatii): ≤ 0.03 µg/mL
- MIC (P. variotil): ≤ 0.03 µg/mL
- MIC (Apaphysomyces; Apaphysomyces APO1, RPMI 0.165M MOPS): 0.125 µg/mL (≈ 0.178 µM)
- MIC (Apaphysomyces; Apaphysomyces APO2, RPMI 0.165M MOPS): 0.125 µg/mL (≈ 0.178 µM)
- MIC (Apaphysomyces; Apaphysomyces APO3, RPMI 0.165M MOPS): 0.25 µg/mL (≈ 0.357 µM)
